Assay results published in patent US9573953B2, “Heteroaromatic compounds as PI3 kinase modulators and methods of use” (CALITOR SCIENCES, LLC, priority 2013, dated 2017).

Experiments:
[1] = Pharmacokinetic profiles in rats; type: in vivo; conditions: for F: iv dose 2 mg/kg, oral dose generally 5 or 10 mg/kg; for Cl/F / AUC(0-t) / half-life / Vd: iv dosing, 2 mg/kg; for AUC(0-t) / half-life / Vd: rat, plasma; for Vd: read-out: Vss
Protocol: The compounds disclosed herein are assessed in pharmacokinetic studies in mice, rats, dogs or monkeys. The compounds are administered as a water solution, 2% HPMC+1% TWEEN®80 in water solution, 5% DMSO+5% solutol in saline, 4% MC suspension or capsule. For the intravenous administration, the animals are generally given at 1 or 2 mg/kg dose. For the oral (p.o.) dosing, mice and rats are generally given 5 or 10 mg/kg dose, and dogs and monkeys are generally given 10 mg/kg dose. The blood samples (0.3 mL) are drawn at 0.25, 0.5, 1.0, 2.0, 3.0, 4.0, 6.0, 8.0, 12 and 24 h time points or 0.083, 0.25, 0.5, 1.0, 2.0, 4.0, 6.0, 8.0 and 24 h time points and centrifuged at 3,000 or 4000 rpm for 2 to 10 min. The plasma solutions are collected and stored at −20° C. or −70° C. until analyzed by LC/MS/MS as described above.

U87MG glioblastoma cells = assay: Tumor xenograft model (U87MG), tumor growth inhibition; type: in vivo, mice; conditions: oral gavage
Protocol: The efficacy of compounds disclosed herein was evaluated in a standard murine model of tumorigenesis. Human tumor cells (U87MG glioblastoma cells from ATCC) were expended in culture, harvested, and injected subcutaneously onto the rear flank of 6-7 week old female athymic nude mice (BALB/cA nu/nu, Hunan SLAC Laboratory Animal, Co.) (n=6-10 for vehicle group and for each dosing group). When tumors reached a volume of 100-250 mm^3, animals were randomly divided into vehicle control (for example, 5% DMSO+70% CAPTISOL® (30%), 7% HCl (pH1), 18% CAPTISOL® (30%); or 7% DMSO, 7% HCl (pH1), 70% CAPTISOL® (30%), 16% CAPTISOL® (30%), or the like) and compound groups. Subsequent administration of compound by oral gavage begins anywhere from day 0 to day 15 post tumor cell challenge and generally continues with once a day for the duration of the experiment.
Progression of tumor growth is assessed by tumor volumes and recorded as a function of time. The long (L) and short (W) axes of the subcutaneous tumors were measured with calipers twice weekly, and the tumor volume (TV) calculated as (L×W^2)/2). TGI was calculated from the difference between the median tumor volumes of vehicle-treated and drug-treated mice, expressed as a percentage of the median tumor volume of the vehicle-treated control group, by the following relation:
Initial statistical analysis is done by repeated measures analysis of variance (RMANOVA), followed by Scheffe post hoc testing for multiple comparisons. Vehicle alone (5% DMSO+70% CAPTISOL® (30%), 7% HCl (pH1), 18% CAPTISOL® (30%); or 7% DMSO, 7% HCl (pH1), 70% CAPTISOL® (30%), 16% CAPTISOL® (30%), or the like) is the negative control.

[2] = Compound stability in human liver microsomes; type: in vitro ADME; conditions: for half-life at 5 μM / CLint scaled at 5 μM: pH 7.4; for CLint scaled at 5 μM: human liver microsomes, in vivo CLint extrapolated
Protocol: (§1) Human or rat liver microsomes incubations were conducted in duplicate in polypropylene tubes. The typical incubation mixtures consisted of human or rat liver microsomes (0.5 mg protein/mL), compounds of interest (5 μM) and NADPH (1.0 mM) in a total volume of 200 μL potassium phosphate buffer (PBS, 100 mM, pH=7.4). Compounds were dissolved in DMSO and diluted with PBS such that the final concentration of DMSO was 0.05%. The enzymatic reactions were commenced with the addition of protein after a 3-min preincubation and incubated in a water bath open to the air at 37° C. Reactions were terminated at various time points (0, 5, 10, 15, 30, 60 min) by adding equal volume of ice-cold acetonitrile. The samples were stored at −80° C. until LC/MS/MS assays.
(§2) The concentrations of compounds in the incubation mixtures of human or rat liver microsomes were determined by a LC/MS/MS method. The ranges of the linearity in the concentration range were determined for each tested compounds.
(§3) A parallel incubation was performed using denatured microsomes as the negative control, and reactions were terminated at various time points (0, 15, 60 min) after incubation at 37° C.
(§4) Dextromethorphan (70 μM) was selected as the positive control, and reactions were terminated at various time points (0, 5, 10, 15, 30, 60 min) after incubation at 37° C. Both positive and negative control samples were included in each assay to ensure the integrity of the microsomal incubation system.
(§5) The concentrations of compounds in human or rat liver microsome incubations were plotted as a percentage of the relevant zero time point control for each reaction. The in vivo CLint were extrapolated (ref.: Naritomi Y, Terashita S, Kimura S, Suzuki A, Kagayama A, Sugiyama Y. “Prediction of human hepatic clearance from in vivo animal experiments and in vitro metabolic studies with liver microsomes from animals and humans”, Drug Metabolism and Disposition, 2001, 29, 1316-1324).

mTOR (h) = biological target: T1, mTOR (h) (Homo sapiens, UniProt P42345); assay: mTOR (h) kinase assay; type: biochemical
T1 construct: purchased Millipore UK Ltd (assays run there as a service)
Protocol: mTOR (h) is incubated with 50 mM HEPES pH 7.5, 1 mM EDTA, 0.01% TWEEN®20, 2 mg/mL substrate, 3 mM Manganese Chloride and [γ-^33P-ATP] (specific activity approx. 500 cpm/pmol, concentration as required). The reaction is initiated by the addition of the MnATP mix. After incubation for 40 minutes at room temperature, the reaction is stopped by the addition of 3% phosphoric acid solution. Aliquote of the reaction (10 μL) is then spotted onto a P30 filtermat and washed three times for 5 minutes in 75 mM phosphoric acid and once in methanol prior to drying and scintillation counting.
The kinase assays described herein were performed at Millipore UK Ltd, Dundee Technology Park, Dundee DD2 1SW, UK.

[3] = Compound stability in rat liver microsomes; type: in vitro ADME; conditions: for half-life at 5 μM / CLint scaled at 5 μM: pH 7.4; for CLint scaled at 5 μM: rat liver microsomes, in vivo CLint extrapolated
Protocol: as §1, §2, §3, §4, §5

[4] = human liver microsomes 0.5 mg protein/mL, compound 5 μM, NADPH, 37° C.
[5] = rat liver microsomes 0.5 mg protein/mL, compound 5 μM, NADPH, 37° C.

Row | F [1] [%] | Cl/F [1] [mL/min/kg] | AUC(0-t) [1] [ng·h/mL] | half-life [1] [h] | Vd [1] [L/kg] | T1/2 [2, 4] | IC50 (mTOR (h)) [nM] | T1/2 [3, 5] | half-life at 5 μM [2, 4] [h] | CLint scaled at 5 μM [2] [mL/min/kg] | half-life at 5 μM [3, 5] [h] | CLint scaled at 5 μM [3] [mL/min/kg] | SMILES | TGI % U87MG (U87MG glioblastoma cells; 1 mg/kg, 12 days) [%] | TGI % U87MG (U87MG glioblastoma cells; 3 mg/kg, 12 days) [%] | TGI % U87MG (U87MG glioblastoma cells; 10 mg/kg, 12 days) [%] | TGI % U87MG (U87MG glioblastoma cells; 1 mg/kg, 13 days) [%] | TGI % U87MG (U87MG glioblastoma cells; 3 mg/kg, 13 days) [%] | TGI % U87MG (U87MG glioblastoma cells; 10 mg/kg, 13 days) [%] | TGI % U87MG (U87MG glioblastoma cells; 0.3 mg/kg, 13 days) [%]
1 | 69.48 | 4.33 | 7720 | 3.7 | 0.8 | ∞ | 4 | ∞ | – | – | – | – | COc1ncc(-c2ccn3ncc(C#N)c3n2)cc1NS(=O)(=O)c1ccc(F)cc1F [Ex. 2, N-(5-(3-cyanopyrazolo[1,5-a]pyrimidin-5-yl)-2-methoxypyridin-3-yl)-2,4-difluorobenzenesulfonamide] | 59 | 76 | – | – | – | – | –
2 | 102.00 | 2.83 | 12100 | 3.93 | 0.32 | – | 9 | – | 11.8 | 2.45 | 2.92 | 14.2 | COc1ncc(-c2ccn3ncc(C#CCO)c3n2)cc1NS(=O)(=O)c1ccc(F)cc1F [Ex. 1, 2,4-difluoro-N-(5-(3-(3-hydroxyprop-1-yn-1-yl)pyrazolo[1,5-a]pyrimidin-5-yl)-2-methoxypyridin-3-yl)benzenesulfonamide] | 26 | 37 | 68 | – | – | – | –
3 | 91.75 | 4.67 | 7350 | 1.93 | 0.48 | – | 4 | – | 4.99 | 5.81 | 2.56 | 16.2 | COc1ncc(-c2ccn3ncc(C#CCO)c3c2)cc1NS(=O)(=O)c1ccc(F)cc1F [Ex. 4, 2,4-difluoro-N-(5-(3-(3-hydroxyprop-1-yn-1-yl)pyrazolo[1,5-a]pyridin-5-yl)-2-methoxypyridin-3-yl)benzenesulfonamide] | – | – | – | 32 | 53 | 89 | –
4 | 94.75 | 4.83 | 7070 | 2.77 | 0.85 | – | 4 | – | 40.1 | 0.72 | 9.59 | 4.32 | COc1ncc(-c2ccn3ncc(C#N)c3c2)cc1NS(=O)(=O)c1ccc(F)cc1F [Ex. 3, N-(5-(3-cyanopyrazolo[1,5-a]pyridin-5-yl)-2-methoxypyridin-3-yl)-2,4-difluorobenzenesulfonamide] | – | – | – | 70 | 95 | – | 26
